Molecules are shown by their SMILES. Activity calls are given as the source filed them. The calls are words filed in the database; no cut-off is given here.

The test system of assay [1] is DNA. The assay can be described thus: Binding affinity to calf thymus DNA assessed as Scatchard binding constant by fluorescence quenching technique. Type of assay: nucleic-acid assay. The conditions noted are these: Bos taurus.
In the next assay the test system is HeLa. Kind of assay: Cytotoxicity against human HeLa cells after 48 hrs by MTT assay. Format: functional, cell-based. A general note: Formazan colour is commonly taken as a measure of viable cells.
Assay [2] relates to DNA. The assay can be described thus: Binding affinity to calf thymus DNA assessed as circular dichroism at 10 uM. Type of assay: nucleic-acid assay. Particulars: Bos taurus.
Assay [3] relates to DNA. Kind of assay: Binding affinity to calf thymus DNA assessed as increase in viscosity of DNA by viscometric titration. Type of assay: nucleic-acid assay. Particulars: Bos taurus.
Assay [4] is described as follows: Cytotoxicity against mouse P388D1 cells after 48 hrs by MTT assay. Type of assay: functional, cell-based. The conditions noted are these: P388D1, 48 h.
In assay [5] the test system is DNA. Kind of assay: Binding affinity to calf thymus DNA assessed as hypochromicity at 50 uM by UV-vis absorption spectra. Format: nucleic-acid assay. Particulars: Bos taurus.

By IC50 is commonly meant the point on the concentration scale where inhibition reaches its midpoint. Read a high IC50 as weaker potency. Consider `CN(C)CCNc1cc2c3c(cccc3c1)C(=O)N(CCN(C)C)C2=O`, for which the Kb in the assay on DNA [1] was 1.85 ×10⁵ /M. In addition, the concentration for half-maximal inhibition (IC50) with HeLa is 830 nM; in assay [4], 620 nM. For the same molecule, the outcome in the assay on DNA [2], in the assay with DNA [3] and in the assay on DNA [5] was Active.

As for `CN(C)CCN1C(=O)c2cccc3cc(N4CCOCC4)cc(c23)C1=O`, the Kb in the assay with DNA [1] turned out to be 0.97 ×10⁵ /M. Also, the IC50 is 530 nM with HeLa and 9440 nM in assay [4].

Take `CN(C)CCCNc1cc2c3c(cccc3c1)C(=O)N(CCN(C)C)C2=O`: the Kb with DNA [1] came to 1.75 ×10⁵ /M. Besides, the IC50 in the assay on HeLa is 230 nM; in assay [4], 710 nM.

In the case of `CN(C)CCN1C(=O)c2cccc3cc(N4CCSCC4)cc(c23)C1=O`, in the assay on DNA [1], the Kb was determined as 0.79 ×10⁵ /M. The IC50 was found to be 2340 nM in the assay on HeLa and 36300 nM in assay [4].

As to `CCCCNc1cc2c3c(cccc3c1)C(=O)N(CCN(C)C)C2=O`, the Kb in the assay on DNA [1] came out at 1.23 ×10⁵ /M. In addition, the half-inhibitory concentration (IC50) in the assay with HeLa turned out to be 3240 nM; in assay [4] it was 9420 nM.

As for `CN(C)CCN1C(=O)c2cccc3cc(N4CCN(C)CC4)cc(c23)C1=O`, the Kb in the assay on DNA [1] amounted to 2.48 ×10⁵ /M. The 50% inhibitory concentration (IC50) was found to be 430 nM with HeLa and 1930 nM in assay [4]. The outcome in the assay with DNA [2], in the assay on DNA [3] and with DNA [5] was Active.

Regarding `CN(C)CCN1C(=O)c2cccc3cc(N4CCCCC4)cc(c23)C1=O`, the Kb in the assay on DNA [1] was found to be 0.85 ×10⁵ /M. Also, the IC50 is 2640 nM in the assay on HeLa and 21600 nM in assay [4].

On to `CN(C)CCN1C(=O)c2cccc3cc(N)cc(c23)C1=O` [AMONAFIDE], for which the Kb in the assay with DNA [1] turned out to be 1.05 ×10⁵ /M. Also, the IC50 with HeLa is 680 nM; in assay [4], 6020 nM.

In the case of `CN(C)CCN1C(=O)c2cccc3cc(NCc4cccs4)cc(c23)C1=O`, the Kb in the assay with DNA [1] turned out to be 1.06 ×10⁵ /M. The IC50 in the assay with HeLa worked out at 3540 nM; in assay [4], 9460 nM.

These data come from ChEMBL document CHEMBL1140851, “Synthesis of new amonafide analogues via coupling reaction and their cytotoxic evaluation and DNA-binding studies” (Bioorg Med Chem, 2009).
